Consider one compound from patent EP2065031A1, “Skin treatment composition” (Evonik Goldschmidt GmbH, priority 2007, dated 2009).

Data set [1] has as its system human skin fibroblast cells. To be noted: incubation of human skin fibroblast cells with 6.25 mg/mL arjunolic acid; cited from earlier work.
Data set [2] has as its system skin. The experiment in a line: transepidermal water loss (Tewameter) in volunteers. It is filed as in vivo, human. Particulars: formulation with 0.1625% arjunolic acid versus carrier, twice daily, 4 weeks, left inner forearm, figure 1. The text has this:
(§1) For the study 30 volunteers were recruited. 15 volunteers got the test formulation with 0.1625% arjunolic acid, 15 got the formulation without active ingredient (carrier). They applied the test formulation twice daily over a period of 4 weeks on the left inner forearm. A Tewameter (TM 300, Courage & Khazaka, Cologne, D) was used to determine the transepidermal water loss. A corneometer (CM825, Courage & Khazaka, Cologne, D) was used to determine the skin hydration. The measurements were performed before the application started and after 4 weeks. Before the measurement started the panelists had to climatize in a climatic room at 21-22°C and 50% relative humidity for at least 15 min.

Data set [3] deals with skin. Description: skin elasticity (Cutometer) in volunteers. It counts as in vivo, human. Particulars: formulation containing 0.1625% arjunolic acid, twice daily, 8 weeks, left inner forearm. As to the method: Method: For this study 30 volunteers were recruited. 15 volunteers got the test formulation with 0.1625% arjunolic acid, 15 got the formulation without active ingredient (carrier). They applied the test formulation twice daily over a period of 8 weeks on the left inner forearm.
The skin elasticity was assessed with a Cutometer MPA 580 (Courage & Khazaka, Cologne, D) which measures the vertical deformation of the skin when sucked into the loop of a measuring probe and reversed into its original condition. From the stretching/release cycles different parameters describing the skin elasticity were calculated. The parameter R1 describes the remaining deformation after the first stretching cycle while R5 is known as netto elasticity (R5 = UR/UE).
For the stretching a vacuum of 450 mbar was kept for 5s, the relaxing time was also 5s. The measurement was carried out after a climatization of the volunteers at room temperature and 50 % relative humidity for at least 15 min. before the treatment started and after 8 weeks of application.

Data set [4] has as its system skin. Description: skin hydration (corneometer) in volunteers. It counts as in vivo, human. To be noted: formulation with 0.1625% arjunolic acid, twice daily, 4 weeks, left inner forearm, figure 2.
Text: as §1

A further data set has as its system TSP1. The experiment in a line: TSP1 expression in reconstructed human epidermis (RHE) skin models, real time RT-PCR. It is filed as cell-based. To be noted: 50 µl aqueous formulation containing 0.325% arjunolic acid, 48 hours, versus formulation without arjunolic acid, read-out: increased expression of TSP1. As to the method:
Since thrombospondin 1 (TSP1) has been described by Murphy-Ullrich et al. 2000, Cytokine & Growth Factor Reviews; 11: 59-69 as one of the most important endogenous activators of TGF-β1 we investigated the effect of arjunolic acid on TSP1 expression in reconstructed human epidermis (RHE) skin models.
For this purpose RHE skin models (SkinEthic laboratories, Nice, France) were incubated with 50 µl of the test formulation (aqueous arjunolic acid formulation containing 0.325% arjunolic acid, 3% Glyceryl Stearate, 3% Ceteareth-20, 1% Stearyl Alcohol, 4% Cetearyl Ethylhexanoate/Isopropylmyristate and 4% Caprylic/Capric Triglyceride) in a humidified atmosphere containing 5 % CO2 for 48 hours. Then cell culture supernatants were removed and skin models were immediately transferred into a 2 ml reaction tube containing 1,5 ml RNAlater RNA stabilisation reagent (#76104, Qiagen, Hilden, Germany) to avoid RNA degradation. Controls received formulation without arjunolic acid only. […] Real time RT-PCR analysis was performed to quantify expression of TSP1. […] Results were analysed with SDS 2.0 software (Applied Biosystems). Relative quantification was performed according to the delta-delta-Ct method with 18s ribosomal RNA (18s rRNA) used as a house keeping gene.
On the technique in general: Quantitative PCR measures a nucleic acid by following its amplification.

Data set [5] is described as follows: solubility of arjunolic acid in water, cosmetic oils and solvents. It is filed as physicochemical. The text has this:
Skin is subject to deterioration through the passage of time (chronological aging, dermatological disorders, hormonal changes, environmental abuse (wind, air conditioning, central heating, pollution) all of which may be accelerated by exposure of skin to radiation from the sun (photoaging). Chronological aging and photoaging is summarized under the term aging. Consumers are increasingly seeking cosmetic products which treat or delay the visible signs of aging skin such as wrinkles, lines, loss of elasticity, uneven skin tone, dry skin, sagging, hyperpigmentation and age spots. There continues to be a need, however, for alternative effective cosmetic compositions for topical application to skin for treating and delaying skin aging. […] This effect be boosted by combinations with at least one additional active selected from the group of anti-aging, anti-inflammatory, anti-cellulite, moisturization, skin barrier improving, anti-wrinkle, firming, soothing or calming active ingredients. As described above arjunolic acid is poorly soluble in common solvents: It is insoluble in water and poorly soluble in cosmetic oils like mineral oil, isopropyl myristate or other ester oils or cosmetic solvents like propylene glycol or glycerol. The solubility of arjunolic acid in propylene glycol is only 0.6%; in ispropylmyristate, mineral oil and glycerin less than 0.1% arjunolic acid are soluble. This leads to the problem that it is very difficult to keep a sufficient amount of arjunolic acid solubilized in the cosmetic preparation without crystallization.

The subject of data set [6] is skin. To be noted: moisturizer containing arjunolic acid, volunteers; cited from earlier work.
The test system of data set [7] is skin. Description: skin scaliness (Visioscan camera) in volunteers. It counts as in vivo, human. To be noted: 0.25% arjunolic acid in the formulation as printed, versus carrier, twice daily, 4 weeks, left inner forearm, figure 5. As to the method:
For this study 30 volunteers were recruited. […] They applied the test formulation twice daily over a period of 4 weeks on the left inner forearm. The measurement was carried out after an acclimatization of the volunteers at room temperature and 50 % relative humidity before the treatment started and after 4 weeks of application.
For the evaluation of the skin scaliness a special camera (Visioscan VC 98, Courage & Khazaka, Cologne, D) was used. […] The picture taken with this camera is converted into a digital signal with 256 grey levels. Via the grey level distribution the software calculates the skin scaliness.

The structures appear in SMILES notation.

Regarding `CC1(C)CC[C@]2(C(=O)O)CC[C@]3(C)C(=CC[C@@H]4[C@@]5(C)C[C@@H](O)[C@H](O)[C@@](C)(CO)[C@@H]5CC[C@]43C)[C@@H]2C1` [arjunolic acid, 2a,3b,23-trihydroxyolean-12-en-28-oic acid], the collagen formation in data set [1] was 30.9 ng/mg. Besides, the “transepidermal water loss (TEWL)” value in the data set with skin [2] is listed as “improves skin barrier”. Further, the “R1, the remaining deformation after the first stretching cycle” value in the data set with skin [3] (figure 3) is “improved significantly”. Besides, the “R5, the netto elasticity” value in the data set with skin [3] (figure 4) was “improved significantly”. The skin hydration entry in the data set on skin [4] is recorded as “increases skin hydration significantly”. The fold induction at 0.325 % with TSP1 is about 10. For the same compound, the solubility in glycerin result in data set [5] (glycerin) is “less than 0.1%”. In data set [5] (ispropylmyristate), the solubility in ispropylmyristate result is “less than 0.1%”. For the same compound, the “solubility in mineral oil” value in data set [5] (mineral oil) is recorded as “less than 0.1%”. Moreover, the “solubility in propylene glycol” value in data set [5] (propylene glycol) was found to be 0.6%. The solubility in water entry in data set [5] (water) was “insoluble”. The anti-wrinkle effects entry in the data set with skin [6] is on record as “good anti-wrinkle effects”. The “reduction of the scaliness” value in the data set on skin [7] is on record as “improved further”.
